Test results published in patent US9616009B2, “Composition containing at least one C7 sugar for alopecia treatment, cosmetic treatment of hair and nails, and care of hair, eyelashes or nails” (LABORATOIRES EXPANSCIENCE, priority 2009, dated 2017).

Columns and labels:
[1] = system: IL-1β; test: IL-1β release (ELISA) by keratinocytes stressed with PMA; format: cell-based, human
Description: (§1) We evaluated the capacity to modulate the inflammatory response of the avocado sugars obtained according to Example 1, hereafter called AV119, in human primary keratinocytes stressed with PMA (phorbol myristic acetate).
(§2) At day 0 (D0), normal human epidermal keratinocytes (NHEK) are seeded in hydrocortisone-free KGM2 medium.
(§3) At subconfluence (at D1), the NHEK are rinsed with PBS and then pretreated with 0.005% and 0.05% avocado sugars AV119 or 0.1 μM dexamethasone (positive control) (Sigma, product D4902) in hydrocortisone-free KGM2 medium.
(§4) Twenty-four hours later, the NHEK are treated overnight with 10 μg/ml PMA (phorbol myristate acetate).
(§5) After incubation, the culture supernatants are collected and stored at −80° C. awaiting the cytokine (IL-1β, TNF-α, IL-8) ELISA (R&D Systems kits).
(§6) In parallel, the number of living cells is determined by a neutral red test.
(§7) The quantity of cytokine assayed for each condition (concentration in pg/ml, or OD450) is reduced to the number of living cells by dividing by the OD540 value obtained at the end of the neutral red test.
(§8) The results are compared statistically using a one way ANOVA followed by a Tukey's test.

[2] = system: TNF-α; test: TNF-α release (ELISA) by keratinocytes stressed with PMA; format: cell-based, human
Description: as §1, §2, §3, §4, §5, §6, §7, §8

[3] = system: IL-8; test: IL-8 release (ELISA) by keratinocytes stressed with PMA; format: cell-based, human
Description: as §1, §2, §3, §4, §5, §6, §7, §8

[4] = system: tumor cells of Ehrlich's ascites carcinoma; settings: perseitol associated with a potassium ion; Shibuya et al., Pure Appl. Chem. 1999; cited from earlier work
[5] = system: IL-6; test: IL-6 gene expression (mRNA, real-time PCR) in keratinocytes stressed with LPS; format: cell-based, human; settings: keratinocytes stressed with 10 μg/ml LPS 24 h: LPS alone, or pretreated with 0.1% AV119 24 h, or with 30 μM calpain
Description: (§9) We evaluated the capacity to modulate the inflammatory response of the avocado sugars obtained according to Example 1, hereafter called AV119, in human primary keratinocytes stressed with LPS (lipopolysaccharide).
(§10) The cells were pretreated with 0.1% AV119 for 24 h and successively with 10 μg/ml of LPS for 24 h. In another series of experiments, the keratinocytes were pretreated with 30 μM calpain and successively with 10 μg/ml LPS for 24 h. Calpain is a specific inhibitor of the transcription factor NFκB, a key element of the inflammatory cascade. A control of keratinocytes treated only with AV119 was prepared.
(§11) Expression of mRNA for the cytokines IL-6, IL-8, IL-1α and TNF-α was analyzed by real-time PCR and protein production and release were analyzed by ELISA in the culture supernatants. Moreover, ICAM-1 expression and production were also analyzed. Finally, IκB phosphorylation was analyzed to measure the activation of transcription factor NFκB.
(§12) Total RNA was extracted with the High Pure RNA Isolation Kit (Roche Diagnostics) according to the manufacturer's recommendations. […] The melting curve was analyzed at the end of each amplification to ensure the absence of non-specific reaction products. […]

[6] = system: IL-8; test: IL-8 gene expression (mRNA, real-time PCR) in keratinocytes stressed with LPS; format: cell-based, human; settings: keratinocytes stressed with 10 μg/ml LPS 24 h: LPS alone, or pretreated with 0.1% AV119 24 h, or with 30 μM calpain
Description: as §9, §10, §11, §12

[7] = system: IL-1α; test: IL-1α gene expression (mRNA, real-time PCR) in keratinocytes stressed with LPS; format: cell-based, human; settings: keratinocytes stressed with 10 μg/ml LPS 24 h: LPS alone, or pretreated with 0.1% AV119 24 h, or with 30 μM calpain
Description: as §9, §10, §11, §12

[8] = system: TNF-α; test: TNF-α gene expression (mRNA, real-time PCR) in keratinocytes stressed with LPS; format: cell-based, human; settings: keratinocytes stressed with 10 μg/ml LPS 24 h: LPS alone, or pretreated with 0.1% AV119 24 h, or with 30 μM calpain
Description: as §9, §10, §11, §12

[9] = system: IL-6; test: IL-6 protein production (ELISA) in keratinocytes stressed with LPS; format: cell-based, human; settings: keratinocytes stressed with 10 μg/ml LPS 24 h: LPS alone, or pretreated with 0.1% AV119 24 h, or with 30 μM calpain; culture supernatant
Description: as §9, §10, §11
(§13) A standard protocol was used for the ELISA tests (Phoenix Pharmaceuticals, Inc.).

[10] = system: IL-8; test: IL-8 protein production (ELISA) in keratinocytes stressed with LPS; format: cell-based, human; settings: keratinocytes stressed with 10 μg/ml LPS 24 h: LPS alone, or pretreated with 0.1% AV119 24 h, or with 30 μM calpain; culture supernatant
Description: as §9, §10, §11, §13

[11] = system: IL-1α; test: IL-1α protein production (ELISA) in keratinocytes stressed with LPS; format: cell-based, human; settings: keratinocytes stressed with 10 μg/ml LPS 24 h: LPS alone, or pretreated with 0.1% AV119 24 h, or with 30 μM calpain; culture supernatant
Description: as §9, §10, §11, §13

[12] = system: TNF-α; test: TNF-α protein production (ELISA) in keratinocytes stressed with LPS; format: cell-based, human; settings: keratinocytes stressed with 10 μg/ml LPS 24 h: LPS alone, or pretreated with 0.1% AV119 24 h, or with 30 μM calpain; culture supernatant
Description: as §9, §10, §11, §13

[13] = system: ICAM-1; test: ICAM-1 gene expression (mRNA, real-time PCR) in keratinocytes stressed with LPS; format: cell-based, human; settings: keratinocytes stressed with 10 μg/ml LPS 24 h: LPS alone, or with 30 μM calpain
Description: as §9
as §10, with “The cells were pretreated with 0.1% AV119 for 24 h and successively with 10 μg/ml of LPS for 24 h.” left out
as §11
Total RNA was extracted with the High Pure RNA Isolation Kit (Roche Diagnostics) according to the manufacturer's recommendations. […] The melting curve was analyzed at the end of each amplification to ensure the absence of non-specific reaction products. Quantification rests on the measure of threshold cycles (CT), which are measured at the beginning of the exponential phase of the reaction and on the normalization of the internal standard curve obtained with the reference gene beta-actin.

[14] = system: ICAM-1; test: ICAM-1 protein production (ELISA) in keratinocytes stressed with LPS; format: cell-based, human; settings: keratinocytes stressed with 10 μg/ml LPS 24 h: LPS alone, or with 1% AV119, or with 30 μM calpain
Description: as §9
as §10, with “The cells were pretreated with 0.1% AV119 for 24 h and successively with 10 μg/ml of LPS for 24 h.” left out
as §11, §13

[15] = system: IκB phosphorylation / transcription factor NFκB; test: IκB phosphorylation (Western blot) as measure of NFκB activation in keratinocytes stressed with LPS; format: cell-based, human; settings: keratinocytes stressed with 10 μg/ml LPS; pretreated with 0.1% AV119 or 30 μM calpain
Description: as §9, §10, §11
Proteins were extracted from the keratinocytes by cold homogenization in lysis buffer (50 mM HEPES pH 7.5, 150 mM NaCl, 1% glycerol, 1% Triton, 1.5 mM MgCl2, 5 mM EGTA) supplemented with 20 mM sodium pyrophosphate, 10 mM sodium orthovanadate and 25 mM NaF and protease inhibitors (aprotinin, phenylmethanesulfonyl fluoride (PMSF)). Protein level was quantified by the Bradford method. […]

[16] = 0.1 μM dexamethasone, in relation to PMA
[17] = NHEK pretreated 24 h with 0.1 μM dexamethasone, then 10 μg/ml PMA overnight
[18] = NHEK, 10 μg/ml PMA overnight, PMA alone
[19] = PMA 10 μg/ml alone, increase in relation to the untreated control (without PMA)

C[C@@H]1C[C@H]2[C@@H]3CCC4=CC(=O)C=C[C@]4(C)[C@@]3(F)[C@@H](O)C[C@]2(C)[C@@]1(O)C(=O)CO [Dexamethasone, dexamethasone]
IL-1β release, % in relation to the control [1, 16]: −70%
IL-1β pg/ml/OD450 (mean ± SD) [1, 17]: 3.232 ± 0.329 pg/ml/OD450
TNF-α release, % in relation to the control [2, 16]: −44%
TNF-α pg/ml/OD450 (mean ± SD) [2, 17]: 0.328 ± 0.007 pg/ml/OD450
IL-8 release, % in relation to the control [3, 16]: −55%
IL-8 pg/ml/OD450 (mean ± SD) [3, 17]: 0.790 ± 0.089 pg/ml/OD450

CCCCCCCCCCCCCC(=O)O[C@@H]1[C@@H](C)[C@@]2(O)[C@@H](C=C(CO)C[C@]3(O)C(=O)C(C)=C[C@@H]23)[C@@H]2C(C)(C)[C@]12OC(C)=O [PMA, phorbol myristate acetate]
IL-1β pg/ml/OD450 (mean ± SD) [1, 18]: 10.930 ± 0.190 pg/ml/OD450
IL-1β release, % in relation to the control [1, 19]: 1399%
TNF-α pg/ml/OD450 (mean ± SD) [2, 18]: 0.584 ± 0.079 pg/ml/OD450
TNF-α release, % in relation to the control [2, 19]: 1091%
IL-8 pg/ml/OD450 (mean ± SD) [3, 18]: 1.765 ± 0.305 pg/ml/OD450
IL-8 release, % in relation to the control [3, 19]: 1017%

OCC(O)C(O)C(O)C(O)C(O)CO (stereo not drawn) [perseitol, Perseitol]
incorporation of 3H-leucine in tumor cells [4]: inhibits the incorporation of 3H-leucine

lipopolysaccharide [LPS]
IL-6 gene expression (mRNA, real-time PCR) [5]: 54.5
IL-8 gene expression (mRNA, real-time PCR) [6]: 54.1
IL-1α gene expression (mRNA, real-time PCR) [7]: 71.5
TNF-α gene expression (mRNA, real-time PCR) [8]: 68.0
IL-6 protein production (ELISA) [9]: 76
IL-8 protein production (ELISA) [10]: 85
IL-1α protein production (ELISA) [11]: 82
TNF-α protein production (ELISA) [12]: 96.0
ICAM-1 gene expression (mRNA, real-time PCR) [13]: 53.2
ICAM-1 protein production (ELISA) [14]: 85
IκB phosphorylation (activation of transcription factor NFκB), Western blot [15]: strongly induced IκB phosphorylation
